Assay results: ChEMBL document CHEMBL6127088, “Novel 2-aminothiazole analogues both as polymyxin E synergist and antimicrobial agent against multidrug-resistant Gram-positive bacteria” (2024)
Converted amounts (≈) assume the structure as drawn. The source made the active and inactive calls. No cut-off for these calls is given here.

Tests used:
[1] = test system: Staphylococcus aureus; experiment: Antibacterial activity against Staphylococcus aureus NCTC 8325 assessed as inhibition of bacterial growth incubated for 18 hrs by broth microdilution method; type: functional
[2] = test system: Acinetobacter baumannii; experiment: Antibacterial activity against Acinetobacter baumannii ATCC 19606 assessed as inhibition of bacterial growth at 4 microg/ml incubated for overnight in presence of 0.25 microg/ml polymyxin-E and measured with in 8 hrs by time-kill assay; type: functional, organism-based; settings: dose 4.0 µg/ml
[3] = test system: Pseudomonas aeruginosa; experiment: Antibacterial activity against Pseudomonas aeruginosa PAE 1051 incubated for 18 hrs by broth microdilution method; type: functional
[4] = test system: Acinetobacter baumannii; experiment: Synergistic antibacterial activity against Acinetobacter baumannii Ab 1611 assessed as fractional inhibitory concentration index at 4 microg/ml incubated for 18 to 20 hrs by chequerboard assay; type: functional; settings: dose 4 µg/ml; time 18-20 hrs
[5] = test system: Bacillus subtilis; experiment: Antimicrobial activity against Bacillus subtilis ATCC 20678 incubated for 18 hrs by broth microdilution method; type: functional
[6] = test system: Bacillus subtilis; experiment: Antibacterial activity against Bacillus subtilis CMCC(B) 63501 assessed as inhibition of bacterial growth incubated for 18 hrs by broth microdilution method; type: functional
[7] = test system: Pseudomonas aeruginosa; experiment: Synergistic antibacterial activity against Pseudomonas aeruginosa PAE 1051 assessed as polymyxin-E MIC at 4 microg/ml incubated for 18 hrs by broth microdilution method; type: functional; settings: dose 4 µg/ml
[8] = test system: Staphylococcus aureus; experiment: Antibacterial activity against Staphylococcus aureus LAC assessed as inhibition of bacterial growth incubated for 18 hrs by broth microdilution method; type: functional
[9] = test system: Staphylococcus aureus; experiment: Antibacterial activity against Staphylococcus aureus S1-1-65 assessed as inhibition of bacterial growth incubated for 18 hrs by broth microdilution method; type: functional
[10] = test system: Pseudomonas aeruginosa; experiment: Synergistic antibacterial activity against Pseudomonas aeruginosa PAE 1051 assessed as fold change in polymyxin-E MIC incubated for 18 hrs by broth microdilution method relative to polymyxin-E alone; type: functional
[11] = test system: Klebsiella pneumoniae; experiment: Synergistic antibacterial activity against Klebsiella pneumoniae SIPI-KPN-1712 assessed as fold change in polymyxin-E MIC incubated for 18 hrs by broth microdilution method relative to polymyxin-E alone; type: functional
[12] = test system: Lacticaseibacillus rhamnosus; experiment: Antibacterial activity against Lactobacillus rhamnosus assessed as inhibition of bacterial growth incubated for 18 hrs by broth microdilution method; type: functional
[13] = test system: Enterococcus faecalis; experiment: Antimicrobial activity against vancomycin-resistant Enterococcus faecalis ATCC 51299 assessed as minimum inhibitory concentration incubated for 18 hrs by broth microdilution method; type: functional
[14] = test system: Staphylococcus aureus; experiment: Antibacterial activity against Staphylococcus aureus S1-1-1 assessed as inhibition of bacterial growth incubated for 18 hrs by broth microdilution method; type: functional
[15] = test system: Acinetobacter baumannii; experiment: Antibacterial activity against Acinetobacter baumannii ATCC 19606 assessed as inhibition of bacterial growth at 16 microg/ml incubated for overnight by time-kill assay; type: functional, organism-based; settings: dose 16.0 µg/ml
[16] = test system: Klebsiella pneumoniae; experiment: Synergistic antibacterial activity against Klebsiella pneumoniae SIPI-KPN-1712 assessed as fractional inhibitory concentration index at 4 microg/ml incubated for 18 to 20 hrs by chequerboard assay; type: functional; settings: dose 4 µg/ml; time 18-20 hrs
[17] = test system: Klebsiella pneumoniae; experiment: Synergistic antibacterial activity against Klebsiella pneumoniae KPN 943 assessed as polymyxin-E MIC at 4 microg/ml incubated for 18 hrs by broth microdilution method; type: functional; settings: dose 4 µg/ml
[18] = test system: Cell membrane; experiment: Disruption of cell membrane integrity in Acinetobacter baumannii ATCC 19606 assessed as cellular vacuolization at 4 microg/ml incubated for 1 hrs in presence of polymyxin-E by TEM analysis; type: subcellular; settings: dose 4.0 µg/ml
[19] = test system: Mycolicibacterium smegmatis; experiment: Antibacterial activity against Mycobacterium smegmatis ARC 700044 assessed as inhibition of bacterial growth incubated for 18 hrs by broth microdilution method; type: functional
[20] = test system: Staphylococcus aureus; experiment: Antibacterial activity against Staphylococcus aureus S1-1-7 assessed as inhibition of bacterial growth incubated for 18 hrs by broth microdilution method; type: functional
[21] = test system: Pseudomonas aeruginosa; experiment: Synergistic antibacterial activity against Pseudomonas aeruginosa […] assessed as fold change in polymyxin-E MIC incubated for 18 hrs by broth microdilution method relative to polymyxin-E alone; type: functional
[22] = test system: Cell membrane; experiment: Disruption of cell membrane integrity in Acinetobacter baumannii ATCC 19606 assessed as cytoplasmic content leakage at 4 microg/ml incubated for 1 hrs in presence of polymyxin-E by TEM analysis; type: subcellular; settings: dose 4.0 µg/ml
[23] = test system: Acinetobacter baumannii; experiment: Synergistic antibacterial activity against Acinetobacter baumannii Ab 1613 assessed as fractional inhibitory concentration index at 4 microg/ml incubated for 18 to 20 hrs by chequerboard assay; type: functional; settings: dose 4 µg/ml; time 18-20 hrs
[24] = test system: Acinetobacter baumannii; experiment: Antibacterial activity against Acinetobacter baumannii ATCC 19606 assessed as inhibition of bacterial growth at 4 microg/ml incubated for overnight in presence of 0.25 microg/ml polymyxin-E and measured at 24 hrs by time-kill assay; type: functional, organism-based; settings: dose 4.0 µg/ml
[25] = test system: Cell membrane; experiment: Induction of outer membrane disruption in Acinetobacter baumannii ATCC 19606 assessed as decrease in fluorescence intensity in presence of polymyxin-E by NPN dye based fluorescence analysis; type: subcellular
[26] = test system: Klebsiella pneumoniae; experiment: Synergistic antibacterial activity against Klebsiella pneumoniae KPN 1617 assessed as fractional inhibitory concentration index at 4 microg/ml incubated for 18 to 20 hrs by chequerboard assay; type: functional; settings: dose 4 µg/ml; time 18-20 hrs
[27] = test system: Acinetobacter baumannii; experiment: Antibacterial activity against Acinetobacter baumannii ATCC 19606 assessed as inhibition of bacterial growth at 4 microg/ml incubated for overnight in presence of 0.25 microg/ml polymyxin-E by time-kill assay; type: functional, organism-based; settings: dose 4.0 µg/ml
[28] = test system: Enterococcus faecalis; experiment: Antibacterial activity against Enterococcus faecalis ATCC 29212 assessed as inhibition of bacterial growth incubated for 18 hrs by broth microdilution method; type: functional
[29] = test system: Acinetobacter baumannii; experiment: Synergistic antibacterial activity against Acinetobacter baumannii Ab 1611 assessed as polymyxin-E MIC at 4 microg/ml incubated for 18 hrs by broth microdilution method; type: functional; settings: dose 4 µg/ml
[30] = test system: Staphylococcus aureus; experiment: Antimicrobial activity against methicillin/ofloxacin-resistant Staphylococcus aureus ATCC 43300 assessed as minimum inhibitory concentration incubated for 18 hrs by broth microdilution method; type: functional
[31] = test system: Pseudomonas aeruginosa; experiment: Synergistic antibacterial activity against Pseudomonas aeruginosa […] assessed as fractional inhibitory concentration index at 4 microg/ml incubated for 18 to 20 hrs by chequerboard assay; type: functional; settings: dose 4 µg/ml; time 18-20 hrs
[32] = test system: Pseudomonas aeruginosa; experiment: Synergistic antibacterial activity against Pseudomonas aeruginosa PAE 3887 assessed as polymyxin-E MIC at 4 microg/ml incubated for 18 hrs by broth microdilution method; type: functional; settings: dose 4 µg/ml
[33] = test system: Staphylococcus aureus; experiment: Antibacterial activity against methicillin-resistant Staphylococcus aureus ATCC 43300 assessed as inhibition of bacterial growth at 2 microg/ml measured after 24 hrs by time-kill assay; type: functional; parameters: scale not given: the % may be the effect or the level left; settings: dose 2 µg/ml
[34] = test system: Staphylococcus aureus; experiment: Antibacterial activity against Staphylococcus aureus SF 8300 assessed as inhibition of bacterial growth incubated for 18 hrs by broth microdilution method; type: functional
[35] = test system: Klebsiella pneumoniae; experiment: Synergistic antibacterial activity against Klebsiella pneumoniae SIPI-KPN-1712 assessed as polymyxin-E MIC at 4 microg/ml incubated for 18 hrs by broth microdilution method; type: functional; settings: dose 4 µg/ml
[36] = test system: Acinetobacter baumannii; experiment: Synergistic antimicrobial activity against Acinetobacter baumannii ATCC 19606 assessed as fractional inhibitory concentration index in presence of polymyxin E incubated for 18 to 20 hrs by chequerboard assay; type: functional; settings: time 18-20 hrs

With `C/C(=N\Nc1ccccn1)c1csc(Nc2cc(F)cc(C(F)(F)F)c2)n1` the MIC [1] was 0.5 µg/mL (≈ 1.26 µM), the Activity [2] was “Active” and the MIC [3] was greater than 128 µg/mL. For the same compound, the “fractional inhibitory concentration index (FICI)” value [4] was 0.094, the MIC [5] was 1 µg/mL (≈ 2.53 µM) and the MIC [6] was 0.5 µg/mL (≈ 1.26 µM). It also gave an MIC [7] of 0.25 µg/mL, an MIC [8] of 1 µg/mL (≈ 2.53 µM) and an MIC [9] of 4 µg/mL (≈ 10.1 µM). For the same compound, the “fold change (FC)” value [10] was 4, the “fold change (FC)” value [11] was 16 and the MIC [12] was 0.5 µg/mL (≈ 1.26 µM). For the same compound, the MIC [13] was 1 µg/mL (≈ 2.53 µM), the MIC [14] was 1 µg/mL (≈ 2.53 µM) and the Activity [15] was “inactive”. For the same compound, the “fractional inhibitory concentration index (FICI)” value [16] was 0.094, the MIC [17] was 0.125 µg/mL and the Activity [18] was “Active”. For the same compound, the MIC [19] was 2 µg/mL (≈ 5.06 µM), the MIC [20] was 2 µg/mL (≈ 5.06 µM) and the “fold change (FC)” value [21] was 2. The Activity [22] was “Active”, the “fractional inhibitory concentration index (FICI)” value [23] was 0.281 and the Activity [24] was “Active”. The Activity [25] was “Active”, the “fractional inhibitory concentration index (FICI)” value [26] was 0.094 and the Activity [27] was “Active”. For the same compound, the MIC [28] was 2 µg/mL (≈ 5.06 µM), the MIC [29] was 0.063 µg/mL and the MIC [30] was 1 µg/mL (≈ 2.53 µM). For the same compound, the “fractional inhibitory concentration index (FICI)” value [31] was 0.531, the MIC [32] was 0.125 µg/mL and the Activity [33] was 100%. The MIC [34] was 1 µg/mL (≈ 2.53 µM), the MIC [35] was 2 µg/mL and the “fractional inhibitory concentration index (FICI)” value [36] was 0.066.
